Assay results as given in PubChem BioAssay (NCI).
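A five-concentration, 48-hour dose response in 96-well plates underlies each endpoint, interpolated linearly between surrounding concentrations. Abbreviation: GI50, concentration required for 50% inhibition of growth. TGI denotes the concentration required for complete inhibition of growth.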

Legend:
Test in all cases: inhibition of tumour cell growth, NCI panel, 48 h
[1] = test system: 786-0 renal
[2] = test system: A498 renal
[3] = test system: A549 NSCLC
[4] = test system: ACHN renal
[5] = test system: BT-549 breast
[6] = test system: CAKI-1 renal
[7] = test system: CCRF-CEM leukemia
[8] = test system: COLO 205 colon
[9] = test system: DU-145 prostate
[10] = test system: EKVX NSCLC
[11] = test system: HCC-2998 colon
[12] = test system: HCT-116 colon
[13] = test system: HCT-15 colon
[14] = test system: HL-60(TB) leukemia
[15] = test system: HOP-62 NSCLC
[16] = test system: HOP-92 NSCLC
[17] = test system: HS 578T breast
[18] = test system: HT29 colon
[19] = test system: IGROV1 ovarian
[20] = test system: K-562 leukemia
[21] = test system: KM12 colon
[22] = test system: LOX IMVI melanoma
[23] = test system: M14 melanoma
[24] = test system: MALME-3M melanoma
[25] = test system: MCF7 breast
[26] = test system: MDA-MB-231 breast
[27] = test system: MOLT-4 leukemia
[28] = test system: NCI-H226 lung
[29] = test system: NCI-H23 lung
[30] = test system: NCI-H460 lung
[31] = test system: NCI-H522 lung
[32] = test system: OVCAR-4 ovarian
[33] = test system: OVCAR-5 ovarian
[34] = test system: OVCAR-8 ovarian
[35] = test system: PC-3 prostate
[36] = test system: RPMI-8226 leukemia
[37] = test system: RXF 393 renal
[38] = test system: SF-268 CNS
[39] = test system: SF-295 CNS
[40] = test system: SF-539 CNS
[41] = test system: SK-MEL-2 melanoma
[42] = test system: SK-MEL-28 melanoma
[43] = test system: SK-MEL-5 melanoma
[44] = test system: SK-OV-3 ovarian
[45] = test system: SN12C renal
[46] = test system: SNB-19 CNS
[47] = test system: SNB-75 CNS
[48] = test system: SR leukemia
[49] = test system: SW-620 colon
[50] = test system: TK-10 renal
[51] = test system: U251 CNS
[52] = test system: UACC-257 melanoma
[53] = test system: UACC-62 melanoma
[54] = test system: UO-31 renal

Which GI50 [1] does the source give for `CCOC(=O)c1ccc(NC(=O)Nc2nccs2)cc1` here?
The GI50 was 716 nM.

What about the TGI [1] of the same compound?
The TGI was greater than 46400 nM.

What about the GI50 [2] of the same compound?
The GI50 was 79.5 nM.

And the TGI [2]?
The TGI was 568 nM.

And the GI50 [3]?
Its GI50 is 72.5 nM.

What about the GI50 [4] of the same compound?
The GI50 was 297 nM.

And the TGI [4]?
Its TGI is greater than 100000 nM.

And the GI50 [5]?
Its GI50 is 328 nM.

What about the TGI [5] of the same compound?
The TGI was 2540 nM.

What about the GI50 [6] of the same compound?
The GI50 was 398 nM.

And the TGI [6]?
The TGI was 44800 nM.

And the GI50 [7]?
The GI50 was 448 nM.

And the TGI [7]?
Its TGI is greater than 100000 nM.

What about the GI50 [8] of the same compound?
Its GI50 is 33.6 nM.

What about the TGI [8] of the same compound?
The TGI was 117 nM.

And the GI50 [9]?
The GI50 was 107 nM.

And the TGI [9]?
The TGI was 690 nM.

And the GI50 [10]?
Its GI50 is 162 nM.

What about the TGI [10] of the same compound?
Its TGI is greater than 96600 nM.

And the GI50 [11]?
Its GI50 is 204 nM.

What about the TGI [11] of the same compound?
The TGI was 4450 nM.

And the GI50 [12]?
The GI50 was 60.5 nM.

And the GI50 [13]?
Its GI50 is 36.4 nM.

And the TGI [13]?
Its TGI is greater than 45500 nM.

What about the GI50 [14] of the same compound?
Its GI50 is 459 nM.

And the TGI [14]?
Its TGI is 7760 nM.

And the GI50 [15]?
The GI50 was 2510 nM.

What about the TGI [15] of the same compound?
Its TGI is greater than 45100 nM.

What about the GI50 [16] of the same compound?
The GI50 was 5250 nM.

What about the TGI [16] of the same compound?
Its TGI is 40400 nM.

What about the GI50 [17] of the same compound?
Its GI50 is 33 nM.

What about the TGI [17] of the same compound?
Its TGI is 33200 nM.

What about the GI50 [18] of the same compound?
The GI50 was 33.6 nM.

And the GI50 [19]?
Its GI50 is 64 nM.

And the TGI [19]?
The TGI was 24000 nM.

And the GI50 [20]?
The GI50 was 31.4 nM.

And the TGI [20]?
The TGI was 30100 nM.

And the GI50 [21]?
Its GI50 is 110 nM.

What about the TGI [21] of the same compound?
The TGI was 1010 nM.

What about the GI50 [22] of the same compound?
Its GI50 is 98.7 nM.

And the TGI [22]?
The TGI was 50100 nM.

And the GI50 [23]?
Its GI50 is 34.6 nM.

And the TGI [23]?
The TGI was greater than 100000 nM.

And the GI50 [24]?
The GI50 was 1240 nM.

And the TGI [24]?
Its TGI is 31500 nM.

And the GI50 [25]?
Its GI50 is 30.9 nM.

What about the TGI [25] of the same compound?
The TGI was 13900 nM.

And the GI50 [26]?
Its GI50 is 275 nM.

And the TGI [26]?
Its TGI is 2980 nM.

And the GI50 [27]?
Its GI50 is 379 nM.

And the TGI [27]?
The TGI was 31300 nM.

What about the GI50 [28] of the same compound?
The GI50 was 363 nM.

And the GI50 [29]?
The GI50 was 66.8 nM.

What about the TGI [29] of the same compound?
The TGI was 36600 nM.

And the GI50 [30]?
Its GI50 is 37.5 nM.

And the TGI [30]?
Its TGI is 2060 nM.

What about the GI50 [31] of the same compound?
Its GI50 is 72.4 nM.

What about the TGI [31] of the same compound?
The TGI was 688 nM.

What about the GI50 [32] of the same compound?
The GI50 was 63.1 nM.

What about the TGI [32] of the same compound?
Its TGI is greater than 66300 nM.

And the GI50 [33]?
The GI50 was 1100 nM.

And the TGI [33]?
Its TGI is greater than 100000 nM.

And the GI50 [34]?
The GI50 was 53.2 nM.

And the TGI [34]?
The TGI was 3170 nM.

And the GI50 [35]?
The GI50 was 443 nM.

What about the TGI [35] of the same compound?
The TGI was 39800 nM.

What about the GI50 [36] of the same compound?
The GI50 was 698 nM.

And the TGI [36]?
Its TGI is greater than 39500 nM.

What about the GI50 [37] of the same compound?
The GI50 was 43.4 nM.

And the TGI [37]?
Its TGI is greater than 100000 nM.

And the GI50 [38]?
The GI50 was 201 nM.

What about the TGI [38] of the same compound?
Its TGI is 16900 nM.

What about the GI50 [39] of the same compound?
The GI50 was 627 nM.

What about the TGI [39] of the same compound?
Its TGI is 15500 nM.

And the GI50 [40]?
The GI50 was 106 nM.

What about the TGI [40] of the same compound?
Its TGI is 385 nM.

What about the GI50 [41] of the same compound?
The GI50 was 819 nM.

What about the TGI [41] of the same compound?
The TGI was 46800 nM.

And the GI50 [42]?
The GI50 was 71.2 nM.

And the TGI [42]?
The TGI was 25800 nM.

What about the GI50 [43] of the same compound?
Its GI50 is 28.5 nM.

And the TGI [43]?
Its TGI is 211 nM.

And the GI50 [44]?
Its GI50 is 44.5 nM.

And the TGI [44]?
Its TGI is 9760 nM.

What about the GI50 [45] of the same compound?
The GI50 was 371 nM.

What about the TGI [45] of the same compound?
Its TGI is 27100 nM.

What about the GI50 [46] of the same compound?
The GI50 was 128 nM.

What about the TGI [46] of the same compound?
The TGI was 42800 nM.

What about the GI50 [47] of the same compound?
The GI50 was 1550 nM.

What about the TGI [47] of the same compound?
The TGI was greater than 48900 nM.

What about the GI50 [48] of the same compound?
Its GI50 is 30.2 nM.

What about the GI50 [49] of the same compound?
Its GI50 is 28.3 nM.

And the TGI [49]?
Its TGI is 35600 nM.

What about the GI50 [50] of the same compound?
The GI50 was 38.1 nM.

What about the TGI [50] of the same compound?
Its TGI is 669 nM.

And the GI50 [51]?
The GI50 was 47.8 nM.

And the TGI [51]?
Its TGI is 25100 nM.

And the GI50 [52]?
The GI50 was 11100 nM.

And the TGI [52]?
The TGI was 24100 nM.

And the GI50 [53]?
The GI50 was 44 nM.

And the TGI [53]?
Its TGI is 20400 nM.

What about the GI50 [54] of the same compound?
The GI50 was 490 nM.

What about the TGI [54] of the same compound?
The TGI was 57800 nM.
